The values below come from US11780802B2, “Organic sulfonic acid salts of amino acid esters and process for their preparation” (priority 2017, dated 2023).

The data set in a line: Stability in alkaline solution (residual ester bonds by 1H-NMR after storage). The class given is physicochemical. To be noted: 7 d, 50 wt % in water. The method, then:
To determine the stability under alkaline conditions, 50 wt % of the organic sulfonic acid salt of an amino acid ester is dissolved in water, pH is adjusted with sodium hydroxide to pH 8.5. The aqueous solution or emulsion is stored for 7 days at room temperature and 40° C. Before storage the integral of CH2-O—CO— (^1H-NMR in MeOD, ˜4.2 ppm) is measured. The stability of organic sulfonic acid salt of an amino acid ester is indicated by measuring the integral of CH2-O—CO— (^1H-NMR in MeOD) after storage.

Consider `CCCCC(CC)COC(=O)CCCCCN.CCCCCCCCCCCCc1ccc(S(=O)(=O)O)cc1` [Example 11, 6-amino-hexane acid-2-ethylhexylester 4-dodecylbenzene sulfonic acid salt], for which the “Residual amount of ester bonds after storage, calculated from 1H-NMR in MeOD” value (from here on “Residual amount … calculated from 1H-NMR in MeOD”) (pH 8.5, 40° C.) was 100% and the “Residual amount … calculated from 1H-NMR in MeOD” value (pH 8.5, RT) is reported as 100%.

As to `CCCCC(CC)COC(=O)CN.CS(=O)(=O)O` (stereo not drawn) [compound 3], the “Residual amount … calculated from 1H-NMR in MeOD” value runs as follows: (pH 8.5, 40° C.) 20%; (pH 8.5, RT) 37%.

Take `CCCCC(CC)COC(=O)C(C)N.CS(=O)(=O)O` (stereo not drawn) [compound 4]: the “Residual amount … calculated from 1H-NMR in MeOD” value was 46% (pH 8.5, 40° C.) and 72% (pH 8.5, RT).
